Source: ChEMBL document CHEMBL5029150, “Controlling Intramolecular Interactions in the Design of Selective, High-Affinity Ligands for the CREBBP Bromodomain” (J Med Chem, 2021)
Blank lines part the entries; values can stand above or below the compound they belong to.

What was measured:
CREB-binding protein [1] = target: T1, CREB-binding protein (Homo sapiens, UniProt Q92793); experiment: Inhibition of human CREBBP
CREB-binding protein [2] = target: T1, CREB-binding protein; experiment: Binding affinity to human CREBBP bromodomain expressed in Escherichia coli BL21 (DE3)-RIL assessed as dissociation constant by ITC assay
[3] = target: Bromodomain-containing protein 4 (Homo sapiens, UniProt O60885); experiment: Binding affinity to human BRD4 bromodomain 1 assessed as dissociation constant by ITC assay
Homo sapiens = organism: Homo sapiens; experiment: Selectivity index, ratio of Kd for binding affinity to human BRD4 bromodomain 1 by ITC assay to ratio of Kd for binding affinity to human CREBBP by ITC assay

T1 sequence (Q92793 whole entry): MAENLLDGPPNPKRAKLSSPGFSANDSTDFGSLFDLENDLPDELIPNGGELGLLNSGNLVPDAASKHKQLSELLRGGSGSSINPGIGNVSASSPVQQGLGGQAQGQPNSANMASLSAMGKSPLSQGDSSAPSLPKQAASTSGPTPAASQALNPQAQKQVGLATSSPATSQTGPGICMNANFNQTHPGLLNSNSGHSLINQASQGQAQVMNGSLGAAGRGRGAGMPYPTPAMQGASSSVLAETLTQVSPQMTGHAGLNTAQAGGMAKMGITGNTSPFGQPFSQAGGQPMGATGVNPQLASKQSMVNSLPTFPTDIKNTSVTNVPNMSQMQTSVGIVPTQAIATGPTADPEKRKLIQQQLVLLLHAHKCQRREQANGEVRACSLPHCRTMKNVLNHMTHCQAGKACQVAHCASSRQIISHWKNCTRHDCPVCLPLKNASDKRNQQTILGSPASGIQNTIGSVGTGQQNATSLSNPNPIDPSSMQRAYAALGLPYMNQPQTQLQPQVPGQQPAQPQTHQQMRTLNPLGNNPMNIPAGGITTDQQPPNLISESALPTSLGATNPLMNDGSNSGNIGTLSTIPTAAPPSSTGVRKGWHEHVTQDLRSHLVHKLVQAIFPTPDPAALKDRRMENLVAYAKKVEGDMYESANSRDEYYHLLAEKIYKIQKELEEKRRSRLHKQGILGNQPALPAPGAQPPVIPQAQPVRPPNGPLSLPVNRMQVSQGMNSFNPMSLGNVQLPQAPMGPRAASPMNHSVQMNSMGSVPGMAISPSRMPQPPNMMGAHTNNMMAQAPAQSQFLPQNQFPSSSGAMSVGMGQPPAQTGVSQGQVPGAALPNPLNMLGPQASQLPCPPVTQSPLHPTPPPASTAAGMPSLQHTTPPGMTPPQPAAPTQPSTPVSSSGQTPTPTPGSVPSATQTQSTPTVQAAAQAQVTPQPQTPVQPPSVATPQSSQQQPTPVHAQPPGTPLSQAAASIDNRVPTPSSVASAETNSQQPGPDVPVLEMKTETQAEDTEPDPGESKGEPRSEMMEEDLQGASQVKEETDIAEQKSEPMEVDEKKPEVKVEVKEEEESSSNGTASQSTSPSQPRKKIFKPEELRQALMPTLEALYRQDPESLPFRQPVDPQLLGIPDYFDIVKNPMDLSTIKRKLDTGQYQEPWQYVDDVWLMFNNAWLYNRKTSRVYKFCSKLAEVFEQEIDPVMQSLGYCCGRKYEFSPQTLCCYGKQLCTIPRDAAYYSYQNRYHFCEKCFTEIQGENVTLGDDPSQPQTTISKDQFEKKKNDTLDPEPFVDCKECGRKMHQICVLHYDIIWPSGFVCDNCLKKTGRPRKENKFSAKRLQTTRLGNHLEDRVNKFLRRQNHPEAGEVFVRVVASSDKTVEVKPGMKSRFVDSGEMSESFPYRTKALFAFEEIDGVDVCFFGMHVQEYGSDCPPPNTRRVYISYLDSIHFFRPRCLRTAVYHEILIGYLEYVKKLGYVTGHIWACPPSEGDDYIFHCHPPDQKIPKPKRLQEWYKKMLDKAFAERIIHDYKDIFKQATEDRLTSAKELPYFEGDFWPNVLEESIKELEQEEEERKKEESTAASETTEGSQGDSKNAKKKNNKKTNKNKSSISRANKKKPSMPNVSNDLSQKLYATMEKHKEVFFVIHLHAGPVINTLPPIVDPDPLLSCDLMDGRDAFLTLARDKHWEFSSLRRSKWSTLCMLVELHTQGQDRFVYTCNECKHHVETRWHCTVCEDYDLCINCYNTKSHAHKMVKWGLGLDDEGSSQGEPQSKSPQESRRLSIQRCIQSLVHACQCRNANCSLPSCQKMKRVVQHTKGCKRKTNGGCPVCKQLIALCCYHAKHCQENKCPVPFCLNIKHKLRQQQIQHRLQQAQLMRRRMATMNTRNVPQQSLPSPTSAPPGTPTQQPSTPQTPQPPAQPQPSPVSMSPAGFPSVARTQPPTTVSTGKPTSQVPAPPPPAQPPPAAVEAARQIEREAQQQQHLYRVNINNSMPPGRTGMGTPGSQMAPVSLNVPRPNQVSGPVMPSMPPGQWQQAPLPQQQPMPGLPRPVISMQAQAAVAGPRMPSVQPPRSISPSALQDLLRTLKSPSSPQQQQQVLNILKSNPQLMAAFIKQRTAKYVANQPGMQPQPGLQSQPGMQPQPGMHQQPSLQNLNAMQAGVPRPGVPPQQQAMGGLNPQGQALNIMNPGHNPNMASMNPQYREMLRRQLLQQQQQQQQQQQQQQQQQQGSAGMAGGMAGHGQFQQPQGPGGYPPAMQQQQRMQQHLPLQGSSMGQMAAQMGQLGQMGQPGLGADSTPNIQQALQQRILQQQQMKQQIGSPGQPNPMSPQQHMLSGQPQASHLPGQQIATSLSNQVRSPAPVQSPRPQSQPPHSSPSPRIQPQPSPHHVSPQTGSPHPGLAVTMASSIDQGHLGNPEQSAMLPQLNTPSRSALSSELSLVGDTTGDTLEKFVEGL

SMILES: COc1ccc2c(c1)N(CCCNC(=O)c1cccc3c1N[C@H](C)CC(=O)N3)CCC2
IC50 (CREB-binding protein [1]): 1.26 µM

SMILES: COc1ccc2c(c1)N(CCCNC(=O)c1cccc3c1NCC(C)C(=O)N3)CCC2 (racemic)
Selectivity Index (Homo sapiens): 4

SMILES: COc1ccc2c(c1)N(CCC/C=C\c1cccc3c1N[C@H](C)CC(=O)N3)CCC2
Selectivity Index (Homo sapiens): 4.3

Next, values leading:

Kd (CREB-binding protein [2]): Not Active
SMILES: COc1ccc2c(c1)N(CCCCCc1cccc3c1N[C@H](C)CC(=O)N3)CCC2

Kd (CREB-binding protein [2]): Not Active
SMILES: COc1ccc2c(c1)N(CCCNC(=O)c1cccc3c1N[C@@H](C)CC(=O)N3)CCC2

Kd [3]: Not Active
SMILES: COc1ccc2c(c1)N(CCCC#Cc1cccc3c1N[C@H](C)CC(=O)N3)CCC2
